Results as given in patent publication US9265773B2, “Tetracyclic heterocycle compounds and methods of use thereof for the treatment of viral diseases” (priority 2011, dated 2016).
pIC50: −log10 of the molar value.

Assays:
HCV replicon genotype 1b = assay: microbe, parasite or virus in culture; format: cell-based; settings: genotype 1b replicon cells, incubated 96 hours, NS3/4A ELISA readout
HCV replicon genotype 1a = assay: microbe, parasite or virus in culture; format: cell-based; settings: genotype 1a replicon cells, incubated 96 hours, NS3/4A ELISA readout

Compound | pIC50 (HCV replicon genotype 1b; Hepatitis C virus, 96 h) | pIC50 (HCV replicon genotype 1a; Hepatitis C virus, 96 h) | pIC50 (HCV replicon genotype 1b) | pIC50 (HCV replicon genotype 1a)
CNC(=O)c1c(-c2ccc(F)cc2)oc2cc(C(N)=O)c(-c3ccc4c(n3)-c3cc5c(F)cccc5n3CO4)cc12 [Compound 183, 5-(11-fluoro-6H-pyrido[2′,3′:5,6][1,3]oxazino[3,4-a]indol-2-yl)-2-(4-fluorophenyl)-N3-methylbenzofuran-3,6-dicarboxamide] | 8.15 | 8.70 |  | 
CNC(=O)c1c(-c2ccc(F)cc2)oc2cc(N(CC(F)F)S(C)(=O)=O)c(-c3ccc4c(n3)-c3cc5c(F)cccc5n3CO4)cc12 [Compound 184, 6-(N-(2,2-difluoroethyl)methylsulfonamido)-5-(11-fluoro-6H-pyrido[2′,3′:5,6][1,3]oxazino[3,4-a]indol-2-yl)-2-(4-fluorophenyl)-N-methylbenzofuran-3-carboxamide] | 8.19 | 8.08 |  | 
CNC(=O)c1c(-c2ccc(F)cc2)oc2cc(N(CC(F)F)S(C)(=O)=O)c(-c3ccc4c(n3)-c3cc5ccccc5n3CO4)cc12 [Compound 185] | 7.80 | 8.10 |  | 
CNC(=O)c1c(-c2ccc(F)cc2)oc2cc(N(CC(F)F)S(C)(=O)=O)c(-c3ncc4c(n3)-c3cc5c(F)cccc5n3CO4)cc12 [Compound 186] | 8.12 | 8.36 |  | 
CNC(=O)c1c(-c2ccc(F)cc2)oc2cc(N(CCCF)S(C)(=O)=O)c(-c3ccc4c(n3)-c3cc5ccccc5n3CO4)cc12 [Compound 187] | 8.03 | 8.12 |  | 
CNC(=O)c1c(-c2ccc(F)cc2)oc2cc(N(CC(F)F)S(C)(=O)=O)c(-c3ccc4c(n3)-c3cc5c(C#N)cccc5n3CO4)cc12 [Compound 188] | 8.43 | 8.42 |  | 
CNC(=O)c1c(-c2ccc(F)cc2)oc2cc(N(CCF)S(C)(=O)=O)c(-c3ccc4c(n3)-c3cc5ccccc5n3CO4)cc12 [Compound 189] | 8.36 | 8.54 |  | 
CNC(=O)c1c(-c2ccc(F)cc2)oc2cc(N(CCF)S(C)(=O)=O)c(-c3ccc4c(n3)-c3cc5c(F)cccc5n3CO4)cc12 [Compound 190] | 8.42 | 8.55 |  | 
CNC(=O)c1c(-c2ccc(F)cc2)oc2cc(N(CCF)S(C)(=O)=O)c(-c3ccc4c(n3)-c3cc5c(C#N)cccc5n3CO4)cc12 [Compound 191] | 8.66 | 8.77 |  | 
CNC(=O)c1c(-c2ccc(F)cc2)oc2cc(N(CCCF)S(C)(=O)=O)c(-c3ccc4c(n3)-c3cc5c(F)cccc5n3CO4)cc12 [Compound 192] | 8.15 | 8.34 |  | 
CNC(=O)c1c(-c2ccc(F)cc2)oc2cc(N(CCF)S(C)(=O)=O)c(-c3ncc4c(n3)-c3cc5c(F)cccc5n3CO4)cc12 [Compound 193] | 8.77 | 8.89 |  | 
CNC(=O)c1c(-c2ccc(F)cc2)oc2cc(N(CCCF)S(C)(=O)=O)c(-c3ccc4c(n3)-c3cc5c(C#N)cccc5n3CO4)cc12 [Compound 194] | 8.64 | 8.72 |  | 
CNC(=O)c1c(-c2ccc(F)cc2)oc2cc(N(CCCF)S(C)(=O)=O)c(-c3ncc4c(n3)-c3cc5c(F)cccc5n3CO4)cc12 [Compound 195] | 8.39 | 8.68 |  | 
CNC(=O)c1c(-c2ccc(F)cc2)oc2cc(N(CCF)S(C)(=O)=O)c(-c3ncc4c(n3)-c3cc5ccccc5n3CO4)cc12 [Compound 196] | 8.44 | 8.74 |  | 
CNC(=O)c1c(-c2ccc(F)cc2)oc2cc(N(CCCF)S(C)(=O)=O)c(-c3ncc4c(n3)-c3cc5ccccc5n3CO4)cc12 [Compound 197] | 8.36 | 8.59 |  | 
CNC(=O)c1c(-c2ccc(F)cc2)oc2cc(N(CC(F)F)S(C)(=O)=O)c(-c3ncc4c(n3)-c3cc5ccccc5n3CO4)cc12 [Compound 198] | 8.25 | 8.70 |  | 
CNC(=O)c1c(-c2ccc(F)cc2)oc2cc(N(C3COC3)S(C)(=O)=O)c(-c3ccc4c(n3)-c3cc5c(F)cccc5n3CO4)cc12 [Compound 199] | 8.23 | 8.33 |  | 
CNC(=O)c1c(-c2ccc(F)cc2)oc2cc(N(CC3CC3)S(C)(=O)=O)c(-c3ccc4c(n3)-c3cc5c(F)cccc5n3CO4)cc12 [Compound 200] | 7.66 | 7.85 |  | 
CNC(=O)c1c(-c2ccc(F)cc2)oc2cc(N(CCO)S(C)(=O)=O)c(-c3ccc4c(n3)-c3cc5c(F)cccc5n3CO4)cc12 [Compound 201] | 8.26 | 8.59 |  | 
CNC(=O)c1c(-c2ccc(F)cc2)oc2cc(N(CC(C)O)S(C)(=O)=O)c(-c3ccc4c(n3)-c3cc5c(F)cccc5n3CO4)cc12 (stereo not drawn) [Compound 202] | 8.06 | 8.55 |  | 
CNC(=O)c1c(-c2ccc(F)cc2)oc2cc(N(CC(C)O)S(C)(=O)=O)c(-c3ccc4c(n3)-c3cc5c(F)cccc5n3CO4)cc12 (stereo not drawn) [Compound 203] |  |  | 8.05 | 8.54
CNC(=O)c1c(-c2ccc(F)cc2)oc2cc(N(CCC3(O)CC3)S(C)(=O)=O)c(-c3ccc4c(n3)-c3cc5c(F)cccc5n3CO4)cc12 [Compound 204] | 7.72 | 8.09 |  | 
CNC(=O)c1c(-c2ccc(F)cc2)oc2cc(N(Cc3ccc(B(O)O)cc3)S(C)(=O)=O)c(-c3ccc4c(n3)-c3cc5c(F)cccc5n3CO4)cc12 [Compound 205, (4-((N-(5-(11-fluoro-6H-pyrido[2′,3′:5,6][1,3]oxazino[3,4-a]indol-2-yl)-2-(4-fluorophenyl)-3-(methylcarbamoyl)benzofuran-6-yl)methylsulfonamido)methyl)phenyl) boronic acid] | 7.82 | 7.85 |  | 
CCOC(=O)C(O)c1c2n(c3cccc(F)c13)COc1ccc(-c3cc4c(C(=O)NC)c(-c5ccc(F)cc5)oc4cc3N(C)S(C)(=O)=O)nc1-2 (stereo not drawn) [Compound 206, ethyl 2-(11-fluoro-2-(2-(4-fluorophenyl)-3-(methylcarbamoyl)-6-(N-methylmethylsulfonamido)benzofuran-5-yl)-6H-pyrido[2′,3′:5,6][1,3]oxazino[3,4-a]indol-12-yl)-2-hydroxyacetate] | 7.64 | 7.82 |  | 
CNC(=O)c1c(-c2ccc(F)cc2)oc2cc(N(C)S(C)(=O)=O)c(-c3ccc4c(n3)-c3c(C(O)C(=O)O)c5c(F)cccc5n3CO4)cc12 (stereo not drawn) [Compound 207, 2-(11-fluoro-2-(2-(4-fluorophenyl) -3-(methylcarbamoyl)-6-(N-methylmethylsulfonamido)benzofuran-5-yl)-6H-pyrido[2′,3′:5,6][1,3]oxazino[3,4-a]indol-12-yl)-2-hydroxyacetic acid] | 8.68 | 8.48 |  | 
CCOC(=O)N(C)C(=O)c1c(-c2ccc(F)cc2)oc2cc(N(C)S(C)(=O)=O)c(-c3ccc4c(n3)-c3cc5c(F)cccc5n3CO4)cc12 [Compound 208, Ethyl (5-(11-fluoro-6H-pyrido[2′,3′:5,6][1,3]oxazino[3,4-a]indol-2-yl)-2-(4-fluorophenyl)-6-(N-methylmethylsulfonamido)benzofuran-3-carbonyl)(methyl)carbamate] | 6.91 | 7.38 |  | 
COC(=O)C(=O)N(C)C(=O)c1c(-c2ccc(F)cc2)oc2cc(N(C)S(C)(=O)=O)c(-c3ccc4c(n3)-c3cc5c(F)cccc5n3CO4)cc12 [Compound 209, methyl 2-(5-(11-fluoro-6H-pyrido[2′,3′:5,6][1,3]oxazino[3,4-a]indol-2-yl)-2-(4-fluorophenyl)-N-methyl-6-(N-methylmethylsulfonamido)benzofuran-3-carboxamido)-2-oxoacetate] | 8.59 | 9.22 |  | 
